Among the data in ChEMBL document CHEMBL2157896, “Engineering pH-gated transitions for selective and efficient double-strand DNA photocleavage in hypoxic tumors” (J Med Chem, 2011) are Activity values, retold here.

Common to all, as to type: nucleic-acid assay
Experiment [1] deals with Nucleic Acid. The experiment can be described thus: Induction of photochemical DNA cleavage in Escherichia coli pBR322 assessed as form 3 level at 15 uM in pH 7.0 phosphate buffer measured after 4 mins of UV irradiation.
Experiment [2] relates to Nucleic Acid. In words: Induction of photochemical DNA cleavage in Escherichia coli pBR322 assessed as form 2 level at 15 uM in pH 6.0 phosphate buffer measured after 0.5 mins of UV irradiation.
Experiment [3] concerns Nucleic Acid. The experiment can be described thus: Induction of photochemical DNA cleavage in Escherichia coli pBR322 assessed as form 3 level at 15 uM in pH 6.0 phosphate buffer measured after 6 mins of UV irradiation.
Experiment [4] concerns Nucleic Acid. The experiment can be described thus: Induction of photochemical DNA cleavage in Escherichia coli pBR322 assessed as form 3 level at 15 uM in pH 8.0 phosphate buffer measured after 10 mins of UV irradiation.
The test system of experiment [5] is Nucleic Acid. In words: Induction of photochemical DNA cleavage in Escherichia coli pBR322 assessed as form I level at 15 uM in pH 7.0 phosphate buffer measured after 0.5 mins of UV irradiation.
Experiment [6] concerns Nucleic Acid. The experiment can be described thus: Induction of photochemical DNA cleavage in Escherichia coli pBR322 assessed as form 3 level at 15 uM in pH 7.0 phosphate buffer measured after 10 mins of UV irradiation.
The test system of experiment [7] is Nucleic Acid. The experiment can be described thus: Induction of DNA cleavage in Escherichia coli pBR322 at 15 uM in pH 6.0 phosphate buffer measured after of UV irradiation.

Consider `NCCCC[C@H](N)C(=O)NCCCC[C@H](N)C(=O)Nc1ccc(C#Cc2c(F)c(F)nc(F)c2F)cc1.O=C(O)C(F)(F)F`, for which the Activity in experiment [1] worked out at 25%; in experiment [2], 60%; in experiment [3] it was 51.9%; in experiment [4], 21.3%; in experiment [5], 64.6%; in experiment [6], 40.5%. Also, in experiment [7], the Activity was found to be 159%.
